In the supplement of paper PMC13380429:

Key:
Settings in all cases: 72 h
Caco-2 [1] = test: relative viability EC50 (midpoint between 100% and the lowest measured viability); higher = less toxic
Calu-3 [2] = test: as above
Vero E6 [3] = test: as above
HepG2 [4] = test: as above
U2OS [5] = test: as above
Caco-2 [6] = test: drug sensitivity score (DSS) for viability; higher = more toxic; extreme values may be limits of the assay
Calu-3 [7] = test: as above
Vero E6 [8] = test: as above
HepG2 [9] = test: as above
U2OS [10] = test: as above
Caco-2 [11] = test: cell viability relative to DMSO; higher = less toxic
Calu-3 [12] = test: as above
Vero E6 [13] = test: as above
HepG2 [14] = test: as above
U2OS [15] = test: as above

Row | Structure (SMILES) | relative viability EC50 (Caco-2 [1]) [µM] | relative viability EC50 (Calu-3 [2]) [µM] | relative viability EC50 (Vero E6 [3]) [µM] | relative viability EC50 (HepG2 [4]) [µM] | relative viability EC50 (U2OS [5]) [µM] | drug sensitivity score (Caco-2 [6]) | drug sensitivity score (Calu-3 [7]) | drug sensitivity score (Vero E6 [8]) | drug sensitivity score (HepG2 [9]) | drug sensitivity score (U2OS [10]) | cell viability (Caco-2 [11]; 1 nM) [%] | cell viability (Caco-2 [11]; 10 nM) [%] | cell viability (Caco-2 [11]; 100 nM) [%] | cell viability (Caco-2 [11]; 1000 nM) [%] | cell viability (Caco-2 [11]; 10000 nM) [%] | cell viability (Calu-3 [12]; 1 nM) [%] | cell viability (Calu-3 [12]; 10 nM) [%] | cell viability (Calu-3 [12]; 100 nM) [%] | cell viability (Calu-3 [12]; 1000 nM) [%] | cell viability (Calu-3 [12]; 10000 nM) [%] | cell viability (Vero E6 [13]; 1 nM) [%] | cell viability (Vero E6 [13]; 10 nM) [%] | cell viability (Vero E6 [13]; 100 nM) [%] | cell viability (Vero E6 [13]; 1000 nM) [%] | cell viability (Vero E6 [13]; 10000 nM) [%] | cell viability (HepG2 [14]; 1 nM) [%] | cell viability (HepG2 [14]; 10 nM) [%] | cell viability (HepG2 [14]; 100 nM) [%] | cell viability (HepG2 [14]; 1000 nM) [%] | cell viability (HepG2 [14]; 10000 nM) [%] | cell viability (U2OS [15]; 1 nM) [%] | cell viability (U2OS [15]; 10 nM) [%] | cell viability (U2OS [15]; 100 nM) [%] | cell viability (U2OS [15]; 1000 nM) [%] | cell viability (U2OS [15]; 10000 nM) [%]
1 | CCN(CC)c1ccc(C(=C2C=CC(=[N+](CC)CC)C=C2)c2ccccc2)cc1 [brilliant-green] | 0.148 | 0.235 | 0.328 | 0.128 | 0.0933 | 21.9 | 18.7 | 17.7 | 22.3 | 24.1 | 92.4 | 92.5 | 69.4 | 0.4 | -0.3 | 94.6 | 101 | 72.4 | 16.2 | 0 | 96.5 | 97.8 | 94.2 | 6.8 | -0.2 | 109 | 97.7 | 58.8 | 5.2 | -0.3 | 93.6 | 95.5 | 47.8 | 0.8 | -0.2
2 | CCCc1nc(C(C)(C)O)c(C(=O)O)n1Cc1ccc(-c2ccccc2-c2nnn[nH]2)cc1 [olmesartan] | > 10 | > 10 | > 10 | > 10 | > 10 | 0 | 0 | 0 | 0 | 0 | 93 | 95.5 | 91.8 | 90.9 | 99.3 | 105 | 101 | 102 | 98 | 101 | 98.8 | 102 | 97.2 | 96.9 | 92.7 | 93.8 | 108 | 93.3 | 98.7 | 99.6 | 98.2 | 96.5 | 98.7 | 93.5 | 99.6
3 | Cc1ccc(-n2sc(=O)n(Cc3ccc(F)cc3)c2=O)cc1 | > 10 | > 10 | > 10 | > 10 | > 10 | 0 | 0 | 0 | 0 | 0 | 99.1 | 97.7 | 98.4 | 100 | 95.9 | 104 | 83.1 | 110 | 98.9 | 94.3 | 96.4 | 97.7 | 97.1 | 99.1 | 93.5 | 89.2 | 107 | 95.9 | 96.1 | 96.1 | 97.9 | 98.7 | 99.6 | 96.1 | 108
4 | CC(=O)N[C@H]1[C@@H](O)[C@H](O)[C@@H](CO)O[C@@H]1O [N-acetylmannosamine] | > 10 | > 10 | > 10 | > 10 | > 10 | 0 | 0 | 0 | 0 | 0 | 102 | 99.6 | 100 | 107 | 104 | 106 | 100 | 94.7 | 102 | 111 | 97 | 95.9 | 92.1 | 92.8 | 108 | 108 | 96.7 | 110 | 105 | 100 | 95.6 | 101 | 105 | 103 | 105
5 | O=C(C[S+]([O-])C(c1ccccc1)c1ccccc1)NO (stereo not given) [adrafinil] | > 10 | > 10 | > 10 | > 10 | > 10 | 0 | 0 | 0 | 0 | 0 | 93.8 | 91.1 | 91.6 | 103 | 101 | 103 | 110 | 98.4 | 107 | 108 | 93.5 | 85.5 | 93.8 | 93 | 107 | 97.6 | 88.7 | 97.2 | 96.1 | 102 | 97.9 | 102 | 97.9 | 107 | 99.8
6 | O=[N+]([O-])C(Br)(CO)CO [bronopol] | > 10 | > 10 | > 10 | > 10 | > 10 | 0 | 0 | 0 | 0 | 0 | 95.2 | 95.2 | 96.5 | 98.7 | 113 | 110 | 98.6 | 91.6 | 103 | 105 | 105 | 84.2 | 106 | 90.6 | 99 | 112 | 108 | 107 | 93.3 | 108 | 95.5 | 102 | 95.7 | 101 | 102
7 | C[C@@H]1O[C@@H]1P(=O)(O)O [FOSFOMYCIN CALCIUM] | > 10 | > 10 | > 10 | > 10 | > 10 | 0 | 0 | 0 | 0 | 0 | 97.3 | 94.5 | 94.4 | 94.1 | 101 | 100 | 104 | 97.7 | 97.5 | 94.9 | 105 | 101 | 98.7 | 99.2 | 100 | 97.6 | 101 | 94.8 | 111 | 97.3 | 103 | 97.9 | 103 | 98.8 | 102
8 | Cc1oc(-c2ccccc2)nc1CCC(=O)c1ccc(CC2SC(=O)NC2=O)cc1 (stereo not given) [darglitazone] | > 10 | > 10 | > 10 | > 10 | > 10 | 0 | 0 | 4.8 | 0 | 0 | 102 | 95.5 | 96.2 | 91.9 | 91.2 | 97.4 | 110 | 114 | 111 | 119 | 96 | 90.8 | 83.3 | 76 | 83.3 | 96.9 | 95 | 95.8 | 96.3 | 95.4 | 109 | 98.7 | 102 | 102 | 103
9 | C[N+](C)(C)CCOC(=O)CCC(=O)OCC[N+](C)(C)C [succinylcholine-chloride] | > 10 | > 10 | > 10 | > 10 | > 10 | 0 | 0 | 0 | 0 | 0 | 103 | 97.3 | 99.9 | 97.2 | 104 | 101 | 103 | 101 | 94.8 | 106 | 108 | 95.8 | 102 | 89.7 | 102 | 106 | 97.2 | 106 | 93.3 | 102 | 98.7 | 103 | 101 | 101 | 102
10 | CC(O)CC(=O)O (stereo not drawn) [beta-hydroxybutyrate] | > 10 | > 10 | > 10 | > 10 | > 10 | 0 | 0 | 0 | 0 | 0 | 114 | 99.4 | 122 | 104 | 103 | 99.2 | 106 | 100 | 96.9 | 94.5 | 97.6 | 95.3 | 93.3 | 97.1 | 114 | 90.5 | 96.2 | 101 | 99.7 | 99 | 94.6 | 95.1 | 99.3 | 97.8 | 101
11 | CN1C(=O)C(Cc2c[nH]c3ccccc23)NC1=S (stereo not given) [necrostatin-1] | > 10 | > 10 | > 10 | > 10 | > 10 | 0 | 0 | 0 | 0 | 0 | 97.7 | 95.8 | 107 | 110 | 100 | 93.9 | 92 | 90.3 | 96.2 | 99 | 95.8 | 99 | 101 | 99.8 | 103 | 110 | 94.5 | 98.1 | 94.6 | 90.6 | 93.6 | 99.2 | 97.7 | 98.6 | 95.1
12 | O=C(Oc1ccccc1)c1ccccc1O [phenyl-salicylate] | > 10 | > 10 | > 10 | > 10 | > 10 | 0 | 0 | 0 | 0 | 0 | 95.3 | 93.7 | 98.1 | 97.1 | 97.6 | 103 | 101 | 93.6 | 104 | 94.9 | 105 | 99.8 | 105 | 98.4 | 104 | 100 | 104 | 97.1 | 110 | 106 | 97.7 | 100 | 97.5 | 102 | 99.4
13 | CC(=O)OCC(=O)NCCCOc1cccc(CN2CCCCC2)c1 [roxatidine-acetate] | > 10 | > 10 | > 10 | > 10 | > 10 | 0 | 0 | 0 | 0 | 0 | 103 | 91.5 | 97.1 | 101 | 93.9 | 107 | 111 | 103 | 99.5 | 99.8 | 106 | 106 | 99.1 | 103 | 99.2 | 94.3 | 107 | 95.5 | 95.4 | 91.1 | 96 | 95 | 98.7 | 93.9 | 97.6
14 | CCCN(CCc1cccs1)[C@H]1CCc2c(O)cccc2C1 [rotigotine] | > 10 | > 10 | > 10 | > 10 | > 10 | 0 | 0 | 0 | 0 | 0 | 98.7 | 95.7 | 103 | 101 | 103 | 105 | 100 | 103 | 100 | 99.6 | 93.4 | 97 | 90.1 | 98.5 | 98.7 | 94.1 | 91.7 | 87 | 107 | 102 | 95 | 98 | 98.4 | 97 | 96.6
